Earlier results in patent US9371263B2, “Protective effects of curcumin against hemorrhagic stroke injury” (Augusta University Research Institute, Inc., priority 2013, dated 2016).

Conditions: humans, oral administration

- systemic bioavailability: relatively low
SMILES: COc1cc(/C=C/C(=O)CC(=O)/C=C/c2ccc(O)c(OC)c2)ccc1O [curcumin, diferuloylmethane]
